Values quoted from earlier work in patent publication US9745567B2, “Compositions and methods for treating multiple sclerosis” (REVALESIO CORPORATION, priority 2008, dated 2017).
Where a name gives a salt, the structure may show the parent alone. Read-outs that look alike come from different tables or passages of the source.

Experiments:
MMP-8 = MMP-8 (Homo sapiens, UniProt P22894)
MMP-3 [1] = biological target: T1, MMP-3 (Homo sapiens, UniProt P08254)
Target sequence in this assay (P08254 100-477, species assumed): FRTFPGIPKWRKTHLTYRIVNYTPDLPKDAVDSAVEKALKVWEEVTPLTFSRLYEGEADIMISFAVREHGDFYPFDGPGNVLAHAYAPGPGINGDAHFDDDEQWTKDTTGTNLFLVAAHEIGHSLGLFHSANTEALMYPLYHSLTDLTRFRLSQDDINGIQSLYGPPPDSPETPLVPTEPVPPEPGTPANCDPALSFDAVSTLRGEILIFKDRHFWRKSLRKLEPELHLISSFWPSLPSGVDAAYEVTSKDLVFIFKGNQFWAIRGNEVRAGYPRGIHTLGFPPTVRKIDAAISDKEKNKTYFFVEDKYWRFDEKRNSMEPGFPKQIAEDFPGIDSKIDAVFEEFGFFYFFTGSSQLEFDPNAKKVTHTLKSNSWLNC

MMP-1 = biological target: T2, MMP-1 (Homo sapiens, UniProt P03956)
T2 sequence (P03956 100-469): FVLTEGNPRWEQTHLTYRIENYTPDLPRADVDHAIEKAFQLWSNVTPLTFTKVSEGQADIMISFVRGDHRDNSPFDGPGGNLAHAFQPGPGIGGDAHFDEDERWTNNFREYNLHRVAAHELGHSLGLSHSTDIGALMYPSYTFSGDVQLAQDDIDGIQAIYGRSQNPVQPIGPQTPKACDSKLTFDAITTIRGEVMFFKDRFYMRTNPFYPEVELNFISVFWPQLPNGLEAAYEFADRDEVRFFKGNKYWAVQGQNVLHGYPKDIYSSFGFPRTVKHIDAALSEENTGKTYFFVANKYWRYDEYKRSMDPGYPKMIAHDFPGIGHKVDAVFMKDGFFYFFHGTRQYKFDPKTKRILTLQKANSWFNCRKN

MMP-9 = MMP-9 (Homo sapiens, UniProt P14780)
MMP-13 = MMP-13 (Homo sapiens, UniProt P45452)
TACE = TACE (Homo sapiens, UniProt P78536)
MMP-2 = biological target: T3, MMP-2 (Homo sapiens, UniProt P08253)
T3 sequence (P08253 110-660): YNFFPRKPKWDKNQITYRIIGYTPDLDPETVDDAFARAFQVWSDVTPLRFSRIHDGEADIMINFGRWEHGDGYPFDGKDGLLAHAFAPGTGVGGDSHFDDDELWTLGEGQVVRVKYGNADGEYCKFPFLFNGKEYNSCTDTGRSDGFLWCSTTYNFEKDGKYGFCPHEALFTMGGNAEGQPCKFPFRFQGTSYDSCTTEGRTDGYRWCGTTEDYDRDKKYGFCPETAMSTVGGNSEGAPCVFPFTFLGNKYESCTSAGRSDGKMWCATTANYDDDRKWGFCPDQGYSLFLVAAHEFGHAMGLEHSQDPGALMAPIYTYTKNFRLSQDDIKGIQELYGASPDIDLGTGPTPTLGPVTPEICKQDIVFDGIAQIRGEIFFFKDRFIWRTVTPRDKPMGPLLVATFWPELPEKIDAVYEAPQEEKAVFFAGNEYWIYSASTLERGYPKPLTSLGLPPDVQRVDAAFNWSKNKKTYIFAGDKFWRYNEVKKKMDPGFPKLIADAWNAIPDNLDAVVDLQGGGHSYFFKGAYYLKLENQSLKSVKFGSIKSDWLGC

MMP-7 = biological target: T4, MMP-7 (Homo sapiens, UniProt P09237)
T4 sequence (P09237 95-267): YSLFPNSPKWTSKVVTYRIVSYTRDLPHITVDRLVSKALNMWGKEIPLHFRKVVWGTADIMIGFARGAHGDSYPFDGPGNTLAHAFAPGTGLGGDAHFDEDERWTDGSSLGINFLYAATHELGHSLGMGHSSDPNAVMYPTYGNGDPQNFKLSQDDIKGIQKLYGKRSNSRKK

[2] = biological target: T5, rabbit MMP-3 catalytic domains (Oryctolagus cuniculus, UniProt P28863); details: competitive inhibitor
T5 construct: rabbit MMP-3 catalytic domains

MMP-3 [3] = biological target: T1, MMP-3; details: for Ki values, human MMP-3 catalytic domain: competitive inhibitor
Target sequence in this assay (P08254 100-477): as the sequence (P08254 100-477, species assumed) above

[4] = biological target: murine macrophage metalloelastase (MME/MMP-12) (Mus musculus, UniProt P34960)
[5] = biological target: pseudolysin from P. aeruginosa (Pseudomonas aeruginosa, UniProt P14756)
multiple sclerosis = details: clinical study, 943 patients with primary progressive MS

MMP-9, sequence (P14780 94-707, species assumed): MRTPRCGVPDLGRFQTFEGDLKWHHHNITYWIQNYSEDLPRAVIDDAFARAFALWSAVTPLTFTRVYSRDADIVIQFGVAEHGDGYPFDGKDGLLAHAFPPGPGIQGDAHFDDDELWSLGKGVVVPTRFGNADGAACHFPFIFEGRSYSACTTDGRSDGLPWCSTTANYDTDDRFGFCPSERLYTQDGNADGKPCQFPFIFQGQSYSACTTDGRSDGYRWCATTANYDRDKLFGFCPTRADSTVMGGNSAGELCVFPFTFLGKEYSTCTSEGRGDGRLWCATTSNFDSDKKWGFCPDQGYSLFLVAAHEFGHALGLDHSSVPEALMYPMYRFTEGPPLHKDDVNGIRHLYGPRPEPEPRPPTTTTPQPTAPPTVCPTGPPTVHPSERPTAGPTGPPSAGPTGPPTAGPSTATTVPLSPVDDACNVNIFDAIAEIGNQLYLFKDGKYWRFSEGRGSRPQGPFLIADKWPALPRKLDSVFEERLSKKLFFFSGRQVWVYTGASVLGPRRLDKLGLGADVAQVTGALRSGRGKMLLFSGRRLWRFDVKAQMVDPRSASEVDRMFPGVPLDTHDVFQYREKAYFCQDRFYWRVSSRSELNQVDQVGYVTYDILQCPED
T5 sequence (P28863 101-273 limits assumed): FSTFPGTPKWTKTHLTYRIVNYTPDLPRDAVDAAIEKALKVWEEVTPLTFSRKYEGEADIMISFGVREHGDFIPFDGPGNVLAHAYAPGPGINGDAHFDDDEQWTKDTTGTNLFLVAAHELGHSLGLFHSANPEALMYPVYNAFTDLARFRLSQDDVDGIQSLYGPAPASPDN
MMP-8, sequence (P22894 101-467, species assumed): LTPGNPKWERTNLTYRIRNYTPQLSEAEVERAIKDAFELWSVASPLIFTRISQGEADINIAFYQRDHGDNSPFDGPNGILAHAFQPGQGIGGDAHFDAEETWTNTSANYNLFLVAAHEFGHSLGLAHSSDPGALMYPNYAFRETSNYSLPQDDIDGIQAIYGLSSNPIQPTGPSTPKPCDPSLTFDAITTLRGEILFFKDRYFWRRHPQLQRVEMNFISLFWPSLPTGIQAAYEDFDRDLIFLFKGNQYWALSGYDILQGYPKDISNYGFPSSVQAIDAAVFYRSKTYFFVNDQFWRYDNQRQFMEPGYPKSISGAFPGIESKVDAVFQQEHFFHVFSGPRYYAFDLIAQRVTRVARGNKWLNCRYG
TACE, sequence (P78536 215-824): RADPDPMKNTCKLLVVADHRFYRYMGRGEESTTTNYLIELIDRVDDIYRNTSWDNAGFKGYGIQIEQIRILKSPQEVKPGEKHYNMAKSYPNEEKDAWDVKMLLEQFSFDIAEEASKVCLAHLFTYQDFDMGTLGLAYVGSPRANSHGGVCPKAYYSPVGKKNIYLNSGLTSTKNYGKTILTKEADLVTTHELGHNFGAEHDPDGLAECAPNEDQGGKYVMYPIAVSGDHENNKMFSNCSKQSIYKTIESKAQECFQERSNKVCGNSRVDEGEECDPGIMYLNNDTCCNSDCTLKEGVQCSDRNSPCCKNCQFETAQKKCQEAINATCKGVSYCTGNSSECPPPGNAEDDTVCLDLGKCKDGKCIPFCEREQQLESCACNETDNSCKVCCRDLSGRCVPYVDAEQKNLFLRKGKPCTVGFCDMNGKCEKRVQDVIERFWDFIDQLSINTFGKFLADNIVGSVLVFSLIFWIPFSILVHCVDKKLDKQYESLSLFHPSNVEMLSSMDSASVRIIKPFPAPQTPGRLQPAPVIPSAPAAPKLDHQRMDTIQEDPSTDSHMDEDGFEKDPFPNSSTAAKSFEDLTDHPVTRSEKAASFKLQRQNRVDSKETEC
murine macrophage metalloelastase (MME/MMP-12), sequence (P34960 110-473): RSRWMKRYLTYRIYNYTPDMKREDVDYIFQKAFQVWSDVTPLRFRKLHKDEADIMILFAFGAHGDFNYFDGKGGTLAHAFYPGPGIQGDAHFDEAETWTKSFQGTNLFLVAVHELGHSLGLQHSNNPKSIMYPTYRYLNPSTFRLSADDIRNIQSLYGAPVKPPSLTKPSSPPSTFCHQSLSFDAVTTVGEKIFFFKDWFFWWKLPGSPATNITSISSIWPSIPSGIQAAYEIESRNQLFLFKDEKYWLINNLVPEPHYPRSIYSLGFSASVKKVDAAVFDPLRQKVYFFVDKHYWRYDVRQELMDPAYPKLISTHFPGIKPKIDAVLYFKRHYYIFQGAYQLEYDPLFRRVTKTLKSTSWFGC
pseudolysin from P. aeruginosa, sequence (P14756 198-498): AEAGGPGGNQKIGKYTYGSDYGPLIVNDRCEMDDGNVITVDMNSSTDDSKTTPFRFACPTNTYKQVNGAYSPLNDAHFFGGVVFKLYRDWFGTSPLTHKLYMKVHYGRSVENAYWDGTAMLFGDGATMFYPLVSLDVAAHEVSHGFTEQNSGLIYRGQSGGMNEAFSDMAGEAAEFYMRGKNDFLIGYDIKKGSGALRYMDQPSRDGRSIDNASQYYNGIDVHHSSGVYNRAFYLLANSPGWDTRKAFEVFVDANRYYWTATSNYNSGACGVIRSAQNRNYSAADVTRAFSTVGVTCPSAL

4-Abz-Gly-Pro-D-Leu-D-Ala-NH—OH [MMP Inhibitor I (FN-439)]
IC50 (MMP-8): 1000 nM | IC50 (MMP-3 [1]): 150000 nM | IC50 (MMP-1): 1000 nM | IC50 (MMP-9): 30000 nM

O=C(NCCCCN1CCOCC1)c1cc2ccccc2o1 [CL-82198]
IC50 (MMP-13): 10000 nM | inhibition of TACE (TACE): Does not inhibit | inhibition of MMP-1 (MMP-1): Does not inhibit | inhibition of MMP-9 (MMP-9): Does not inhibit

N=C(NCCCCCCNC(=N)NC(=N)Nc1ccc(Cl)cc1)NC(=N)Nc1ccc(Cl)cc1 [Chlorhexidine, Dihydrochloride]
inhibition of MMP-2 (MMP-2): Acts as a Zn2+-chelating inhibitor of MMP-2 and MMP-9. | inhibition of MMP-9 (MMP-9): Acts as a Zn2+-chelating inhibitor of MMP-2 and MMP-9.

CC(C)C[C@H](CC(=O)O)C(=O)N[C@@H](Cc1c[nH]c2ccccc12)C(=O)N[C@@H](C)c1ccccc1 [GM 1489]
Ki (MMP-8): 100 nM | Ki (MMP-2): 500 nM | Ki (MMP-3 [1]): 20000 nM | Ki (MMP-1): 0.2 nM | Ki (MMP-9): 100 nM

CNC(=O)C(CCc1ccccc1)NC(=O)C(CC(=O)NO)CC(C)C (centres unmarked) [MMP Inhibitor III]
IC50 (MMP-13): 1 to 10 nM | IC50 (MMP-2): 2.3 nM | IC50 (MMP-3 [1]): 135 nM | IC50 (MMP-1): 7.4 nM | IC50 (MMP-7): 10 to 100 nM

CCCCCCCC/C=C\CCCCCCCC(=O)NO [MMP-2 Inhibitor I (OA-Hy)]
Ki (MMP-2): 1700 nM

COC(=O)[C@H](Cc1ccccc1)NC(=O)Nc1nnc(S)s1 [MMP-2/MMP-3 Inhibitor I]
Ki (MMP-2): 17000 nM

CC(NC(=O)C(Cc1ccccc1)NC(=O)CCC(=O)NO)C(N)=O (centres unmarked) [MMP-2/MMP-9 Inhibitor IV, HONH—COCH2CH2CO-FA-NH2]
Ki (MMP-2): 13.9 nM | Ki (MMP-9): 600 nM

O=C(O)CCC(=NO)c1ccc2oc3ccccc3c2c1 [MMP-3 Inhibitor V, 4-Dibenzofuran-2′-yl-4-hydroximino-butyric Acid]
Ki values, rabbit MMP-3 catalytic domain [2]: the low μM range. | Ki values, human MMP-3 catalytic domain (MMP-3 [3]): the low μM range.

O=C(O)CCC(=NO)c1ccc(-c2ccccc2)cc1 [MMP-3 Inhibitor VI, 4-(4′-Biphenyl)-4-hydroxyimino-butyric Acid]
Ki values, rabbit MMP-3 catalytic domain [2]: the low μM range. | Ki values, human MMP-3 catalytic domain (MMP-3 [3]): the low μM range.

COc1ccc(S(=O)(=O)N(Cc2ccccc2)C(CC(C)C)C(=O)NO)cc1 (centres unmarked) [MMP-3 Inhibitor VIII]
IC50 [4]: 13 nM | Ki (MMP-3 [3]): 23 nM

O=S(=O)(CCC(S)CS)c1ccc(Oc2ccccc2)cc1 (centres unmarked) [compound 1, 4-(4-phenoxyphenylsulfonyl)butane-1,2-dithiol]
inhibition of MMP-2 (MMP-2): bind selectively and inhibit potently | inhibition of MMP-9 (MMP-9): bind selectively and inhibit potently

O=S(=O)(CCCC(S)CS)c1ccc(Oc2ccccc2)cc1 (centres unmarked) [compound 2, 5-(4-phenoxyphenylsulfonyl)pentane-1,2-dithiol]
inhibition of MMP-2 (MMP-2): bind selectively and inhibit potently | inhibition of MMP-9 (MMP-9): bind selectively and inhibit potently

H-Cys1-Thr-Thr-His-Trp-Gly-Phe-Thr-Leu-Cys10-OH (cyclic: 1 → 10) [MMP-2/MMP-9 Inhibitor III]
IC50 (MMP-2): 10000 nM

HONH—COCH2CH2CO-Phe-Ala-NH2 [MMP Inhibitor IV]
inhibition of pseudolysin from P. aeruginosa [5]: potently inhibits MMPs and

RCGVPD [MMP-3 Inhibitor I, Ac-Arg-Cys-Gly-Val-Pro-Asp-NH2]
IC50 (MMP-3 [1]): 5000 nM

glatiramer acetate
progression of disability and disease (multiple sclerosis): failed to halt the progression of disability and the disease
